Test results published in US11000033B2, “Ketone or oxime compound, and herbicide” (NISSAN CHEMICAL CORPORATION, priority 2014, dated 2021).

Experiments:
Assay type in all cases: in vivo
[1] = tested on: Echinochloa oryzacola Vasing.; test: Test Example 2: herbicidal activity, application during weed generation in submerged conditions (symbol A); settings: Table 23; application herbicide amount 320 g/ha; grade 0-5 by criteria of Test Example 1
In short: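 Flooded-soil post-emergence test: emulsion of compound, water-diluted to target rate, applied to paddy water surface at 1–2 leaf stage of mixed-sown weeds (alluvial soil, 4 cm water, 25–30° C. greenhouse); visual rating 3 weeks after application.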

[2] = tested on: Echinochloa crus-galli var. crus-galli; test: Test Example 3: herbicidal effect by foliage application, Wagner pot (symbol H); settings: application herbicide amount 320 g/ha
In short: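 Rating at 3 weeks post-spray, by defined criteria. Treatment: emulsion diluted with water to a predetermined amount, applied evenly to foliage of 14-day-old plants raised in alluvial soil flooded 0.1–0.5 cm deep at 25–30 °C, rice co-sown.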

[3] = tested on: directly sowed rice plant; test: Test Example 3: effect on crop by foliage application, Wagner pot (symbol b); settings: application herbicide amount 320 g/ha
In short: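 Steps: fill a 1/10000-are Wagner pot with alluvial soil; add water and mix to submerge at 0.1–0.5 cm depth; sow rice plus Echinochloa crus-galli var. crus-galli, Leptochloa chinensis and Cyperus difformis; grow in a 25–30 °C greenhouse.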

Setaria viridis = test: Test Example 4: herbicidal effect by soil treatment (symbol G); settings: application herbicide amount 320 g/ha
In short: (§1)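 Seeds were sown in sterilized diluvial soil, covered with about 1.5 cm of soil, and the soil surface was sprayed with a water-diluted emulsion of the compound at a predetermined rate. Plants grew in a greenhouse at 25° C. to 30° C.; effects were scored visually 3 weeks after application.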

Lolium multiflorum Lam. = test: Test Example 4: herbicidal effect by soil treatment (symbol K); settings: application herbicide amount 320 g/ha
In short: as §1

corn = test: Test Example 4: effect on crop by soil treatment (symbol c); settings: application herbicide amount 320 g/ha
In short: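 The test used sterilized diluvial soil. Seed was set down in spots and overlaid with about 1.5 cm of soil before growth in a greenhouse kept at 25° C. to 30° C.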

soybean = test: Test Example 4: effect on crop by soil treatment (symbol d); settings: application herbicide amount 320 g/ha
In short: (§2)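 Grown at 25° C. to 30° C. in a greenhouse, the crops came from seed sown spot-wise in sterilized diluvial soil under roughly 1.5 cm of covering soil.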

rapeseed = test: Test Example 4: effect on crop by soil treatment (symbol g); settings: application herbicide amount 320 g/ha
In short: as §2

Avena fatua = test: Test Example 5: herbicidal effect by foliage application, plastic box (symbol I); settings: 320 g/ha, 3 weeks after application
In short: (§3)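 Sowing in sterilized diluvial soil, 14 days' greenhouse growth at 25° C. to 30° C., then uniform small-sprayer foliar application of aqueous emulsion dilution; plants scored three weeks afterwards.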

Stellaria media = test: Test Example 5: herbicidal effect by foliage application, plastic box (symbol P); settings: 320 g/ha, 3 weeks after application
In short: as §3

wheat = test: Test Example 5: effect on crop by foliage application, plastic box (symbol e); settings: 320 g/ha, 3 weeks after application
In short: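 Diluvial soil, sterilized and boxed (21 × 13 × 7 cm), received spot-sown seed covered by about 1.5 cm soil; plants were then greenhouse-grown at 25–30° C.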

Row | Compound | Herbicidal effect grade, A: Echinochloa oryzacola Vasing. [1] | herbicidal effect on H (Echinochloa crus-galli var. crus-galli), grade 0-5 [2] | effect on crop b (directly sowed rice plant), grade 0-5 [3] | G: Setaria viridis, herbicidal effect grade (Setaria viridis) | K: Lolium multiflorum Lam., herbicidal effect grade (Lolium multiflorum Lam.) | c: corn, effect on crop grade (corn) | d: soybean, effect on crop grade (soybean) | g: rapeseed, effect on crop grade (rapeseed) | I: Avena fatua, herbicidal effect grade (Avena fatua) | P: Stellaria media, herbicidal effect grade (Stellaria media) | e: wheat, effect on crop grade (wheat)
1 | CON=C(C)CC1CC(O)=C(c2c(C)cc(C)cc2Br)C1=O (stereo not shown) [6-038] | 4 (Herbicidal ratio of 70% or higher and lower than 90%) | 5 (Herbicidal ratio of 90% or more (almost completely withered)) | 5 (Herbicidal ratio of 90% or more (almost completely withered)) | 4 (Herbicidal ratio of 70% or higher and lower than 90%) | 5 (Herbicidal ratio of 90% or more (almost completely withered)) | 5 (Herbicidal ratio of 90% or more (almost completely withered)) | 1 (Herbicidal ratio of 5% or higher and lower than 20%) | 5 (Herbicidal ratio of 90% or more (almost completely withered)) | 5 (Herbicidal ratio of 90% or more (almost completely withered)) | 4 (Herbicidal ratio of 70% or higher and lower than 90%) | 3 (Herbicidal ratio of 40% or higher and lower than 70%)
2 | CON=C(C)CC1CC(O)=C(c2c(C)cc(OCC(F)(F)F)cc2C)C1=O (stereo not shown) [6-049] | 5 (Herbicidal ratio of 90% or more (almost completely withered)) | 5 (Herbicidal ratio of 90% or more (almost completely withered)) | 5 (Herbicidal ratio of 90% or more (almost completely withered)) | 5 (Herbicidal ratio of 90% or more (almost completely withered)) | 5 (Herbicidal ratio of 90% or more (almost completely withered)) | 5 (Herbicidal ratio of 90% or more (almost completely withered)) | 0 (Herbicidal ratio of 5% or lower (almost no effect)) | 5 (Herbicidal ratio of 90% or more (almost completely withered)) | 0 (Herbicidal ratio of 5% or lower (almost no effect)) | 5 (Herbicidal ratio of 90% or more (almost completely withered)) | 5 (Herbicidal ratio of 90% or more (almost completely withered))
